The experiment concerns the target T1, CDK9 (Inactive) (Homo sapiens, UniProt P50750).
T1 construct: purchased Thermo Fisher Scientific (Life Technologies) SelectScreen
As to the kind of experiment: SelectScreen LanthaScreen. The conditions noted are these: read-out: % displacement. It counts as binding. Summed up: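 SelectScreen broad panel; activity (Z'LYTE, Adapta) plus binding formats. ATP: Km app for CSF1R Z'LYTE; 10 for CAMK1 Adapta. Readout = % per kinase.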
In general terms: Time-resolved FRET reads energy transfer from a long-lived donor to a nearby acceptor.

T1 sequence (P50750 whole entry): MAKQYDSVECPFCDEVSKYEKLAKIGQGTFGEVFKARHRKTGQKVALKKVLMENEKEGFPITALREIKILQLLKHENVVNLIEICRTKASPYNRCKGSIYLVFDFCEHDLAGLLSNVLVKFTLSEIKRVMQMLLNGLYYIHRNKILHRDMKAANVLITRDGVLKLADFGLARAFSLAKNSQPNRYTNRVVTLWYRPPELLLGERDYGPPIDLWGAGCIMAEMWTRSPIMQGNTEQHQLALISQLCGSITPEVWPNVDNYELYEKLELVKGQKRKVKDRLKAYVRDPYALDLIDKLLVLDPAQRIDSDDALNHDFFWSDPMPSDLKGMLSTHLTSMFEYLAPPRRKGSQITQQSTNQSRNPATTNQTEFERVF

Take `CN(C(=O)CN1CCOCC1)c1ccc2sc3c(-c4cccc5c(=O)cc(N6CC7CCC(C6)O7)oc45)cccc3c2c1` [NU5455]: the inhibition at 1 µM worked out at 9%.

These data come from article PMC6934184, “Selective DNA-PKcs inhibition extends the therapeutic index of localized radiotherapy and chemotherapy” (The Journal of Clinical Investigation, 2019).
